This is an account of results in patent US6630128B1, “Porphyrin derivatives their use in photodynamic therapy and medical devices containing them” (Destiny Pharma Limited, priority 1999, dated 2003).

Data set [1] is described as follows: Fluorescence quantum yields (corrected emission spectra, relative to TPP). The data set is classed as physicochemical. Particulars: excitation wavelength 355 nm, emission 550-800 nm. Here is the method: Mass spectra were recorded on a Finnigan MAT TSQ 700 triple quadrupole mass spectrometer equipped with an […]. The matrix-assisted laser desorption/ionization mass spectra of the porphyrins were obtained using a dithranol matrix. FAB-MS spectra were obtained using a 3-nitrobenzyl alcohol (NOBA) matrix. ^1H-NMR spectra were measured at 60 MHz on a Jeol JNM-PMX60 spectrometer, at 270 MHz on a Jeol EX 270 spectrometer and at 300 MHx on a Varian Gemini-300 spectrometer in CDCl3 using TMS as an internal reference. Ultraviolet/visible spectra of solutions of compounds in tetrahydrofuran (THF) or toluene were measured using a Hitachi U-3000 spectrophotometer or a ATI-Unicam UV-2 spectrophotometer. Reflectance-absorbance infra red (RAIR) spectra were recorded on a BIO-RAD FTS 165 spectrophotometer. Fluorescence emission spectra were recorded using a Spex Fluorolog 3 spectrophotometer at an excitation wavelength of 355 nm, emission at 550 to 800 nm, with a bandpass of 2 nm.
The emission spectra were recorded using a Spex Fluorolog 3, excitation wavelength=355 nm, emission 550-800 nm, with a bandpass of 2 nm. A spectrum was recorded for each of the title compounds of Examples 67 to 81.
The fluorescence quantum yield for each of the title compounds of Examples 67 to 81 was determined by measuring the integral of the corrected emission spectra for each compound and calculated relative to TPP=0.11 (Handbook of Photochemistry Ed 2, Murov, Carmichael and Hug, Dekker 1993). The fluorescence quantum yield for each of the title compounds of Examples 67 to 81 are listed in Table 1; values for Zn TPP and Mg TPP are included in Table 1 for reference but they were not measured in this work.

The nature of data set [2]: Singlet oxygen quantum yields (singlet oxygen phosphorescence at 1270 nm). It is filed as physicochemical. Particulars: aerated toluene, excitation 355 nm, 20-23° C., relative to TPP ΦΔ=0.58. Here is the method: The singlet oxygen quantum yields were determined by the direct measurement of singlet oxygen phosphorescence at 1270 nm. Samples were excited using the third harmonic of a Q-switched Nd:YAG (neodymium: yttrium-aluminium-garnet) Spectra Physics GCR-150-10 laser, operating at an excitation wavelength of 355 nm. A small fraction of the laser output was passed through a solution state filter containing aqueous cobalt (II) sulphate (CoSO4) to remove residual 532 and 1064 nm radiation and then down a 8 mm diameter liquid light guide (Oriel). For the measurements the end of the light guide was held against a 1 cm×1 cm fluorescence cuvette (Hellma) holding the sample. During the course of the experiments the incident laser energy for each measurement was determined using a pyroelectric detector held behind the sample. This detector was calibrated at the start of the experiment using a second calibrated energy meter (Gentec ED100). The laser energy was adjusted by placing cells containing aqueous sodium nitrite between the CoSO4 filter and the light guide. Typical pulse energies used were in the range of 25-500 μJ per pulse. Shot to shot noise was estimated to be <10% and sets of 20 shots gave an average value within <3%.
Phosphorescence from the sample was collected and passed through an interference filter centred at 1270 nm available from (Infra Red Engineering Ltd) and then focused onto the active area of a liquid nitrogen cooled germanium photodiode (North Coast EO-817P). The output from this device was AC coupled to a digital oscilloscope (Tektronix TDS-320) which digitised and averaged the transients. Typically 20 laser shots were used for each sample. The averaged data was transferred to a PC where it was stored and analysed.
A stock solution of each of the title compounds of Examples 67 to 81 was prepared by dissolving a small sample of the respective title compound in approximately 5 ml of toluene (Fisher Scientific, Analytical grade). The exact concentrations of the stock solution was not determined.
A working solution of each of the title compounds of Examples 67 to 81 was prepared by diluting the respective stock solution with toluene to give an absorbance of 0.100±0.005 at 355 nm when placed in a ultraviolet/visible spectrometer (ATI-Unicam UV-2) compared to a reference cell containing the pure toluene solvent. The ultraviolet/visible spectrum of each sample was also recorded over the range 300-700 nm.
All of the data were recorded at ambient temperature, 20-23° C., and the solutions were aerated. The singlet oxygen emission decay was recorded for each sample using 5 laser energies and the data for each measurement were fitted to an exponential decay of the form I(t)=A.exp(−t/τ), where I(t) is the measured intensity of singlet oxygen phosphorescence at time t, A is the intensity extrapolated back to t=0 (ie when the laser fires), and τ is the lifetime of singlet oxygen. A typical decay for the title compound of Example 78 in toluene excited at 355 nm using a pulse energy of 365 μJ, where A=19.6 and τ=27.8 μs, is shown in FIG. 2.
A plot of A versus the incident laser energy was drawn for each sample and the slope determined. The slope of such a graph is proportional to the singlet oxygen quantum yield. An example of a plot showing the linear relationship between the singlet oxygen emission intensity and the laser energy for the title compound of Example 78 and meso-tetraphenylporphyrin (TPP) is shown in FIG. 3.
The experiments were carried out using batches of 5 samples of the working solution of each of the title compounds of 67 to 81 plus one reference sample meso-tetraphenylporphyrin (TPP). Each run was repeated at least once. The data sets obtained for each sample were within ±5% of the mean value.
The dominant sources of error in the experiment include the shot-to-shot fluctuations in the laser and the difference in absorbances of the samples at the excitation wavelength. The values have an error of ±10%. […]

For the compound “5,5′-{4,4′-[12,12′-Dithiobis-(dodecyloxy)-phenyl]}-10,10′,15,15′,20,20′-hexakis-(3,4,5-tridecyloxy-phenyl)-diporphyrinato Magnesium [Example 68]”, in data set [1], the “Quantum yield of fluorescence, relative to TPP = 0.11” value was 0.10. Moreover, the “ΦΔ (singlet oxygen quantum yield)” value in data set [2] is 0.39 ± 0.04.
Turning to “5,5′-{4,4′-[12,12′-Dithiobis-(dodecyloxy)-phenyl]}-10,10′,15,15′,20,20′-hexakis-(3,4,5-tridecyloxy-phenyl)-diporphyrinato Zinc [Example 67]”, the “Quantum yield of fluorescence, relative to TPP = 0.11” value in data set [1] was 0.04. For the same compound, in data set [2], the “ΦΔ (singlet oxygen quantum yield)” value was found to be 0.65 ± 0.07.
On to “5-[4-(6-but-3-Enyloxy-hexyloxy)-phenyl]-10,15,20-tris-(3,4,5-tridecyloxy-phenyl)-porphyrinato Zinc [Example 70]”, for which the “Quantum yield of fluorescence, relative to TPP = 0.11” value in data set [1] is given as 0.04. For the same compound, the “ΦΔ (singlet oxygen quantum yield)” value in data set [2] came to 0.75 ± 0.07.
The matching figures for “5-[4-(6-but-3-Enyloxy-hexyloxy)-phenyl]-10,15,20-tris-(3,5-didecyloxy-phenyl)-porphyrinato Zinc [Example 79]”: 0.04 and 0.76 ± 0.08.
For “5-[4-(12-but-3-Enyloxy-dodecyloxy)-phenyl]-10,15,20-tris-(3,4,5-trihexyloxy-phenyl)-porphyrinato Zinc [Example 72]” the same measures were 0.04 and 0.71 ± 0.07.
The matching figures for “5-[4-(12-but-3-Enyloxy-dodecyloxy)-phenyl]-10,15,20-tris-(3,5-didecyloxy-phenyl)-porphyrinato Zinc [Example 80]”: 0.04 and 0.75 ± 0.07.
Regarding “5-[4-(12-but-3-Enyloxy-dodecyloxy)-phenyl]-10,15,20-tris-(3,5-dihexadecyloxy-phenyl)-porphyrinato Zinc [Example 81]”, the “Quantum yield of fluorescence, relative to TPP = 0.11” value in data set [1] is on record as 0.04. For the same compound, in data set [2], the “ΦΔ (singlet oxygen quantum yield)” value was found to be 0.70 ± 0.07.
The matching figures for `C=CCCOCCCCCCOc1ccc(-c2c3nc(c(-c4cc(OCCCCCC)c(OCCCCCC)c(OCCCCCC)c4)c4ccc([n-]4)c(-c4cc(OCCCCCC)c(OCCCCCC)c(OCCCCCC)c4)c4nc(c(-c5cc(OCCCCCC)c(OCCCCCC)c(OCCCCCC)c5)c5ccc2[n-]5)C=C4)C=C3)cc1.[Zn+2]` [Example 69, 5-[4-(6-but-3-Enyloxy-hexyloxy)-phenyl]-10,15,20-tris-(3,4,5-trihexyloxy-phenyl)-porphyrinato Zinc]: 0.04 and 0.71 ± 0.07.
The matching figures for `C=CCCOCCCCCCOc1ccc(-c2c3nc(c(-c4cc(OCCCCCCCCCCCCCCCC)c(OCCCCCCCCCCCCCCCC)c(OCCCCCCCCCCCCCCCC)c4)c4ccc([n-]4)c(-c4cc(OCCCCCCCCCCCCCCCC)c(OCCCCCCCCCCCCCCCC)c(OCCCCCCCCCCCCCCCC)c4)c4nc(c(-c5cc(OCCCCCCCCCCCCCCCC)c(OCCCCCCCCCCCCCCCC)c(OCCCCCCCCCCCCCCCC)c5)c5ccc2[n-]5)C=C4)C=C3)cc1.[Zn+2]` [Example 71, 5-[4-(6-but-3-Enyloxy-hexyloxy)-phenyl]-10,15,20-tris-(3,4,5-trihexadecyloxy-phenyl)-porphyrinato Zinc]: 0.04 and 0.72 ± 0.07.
For `C=CCCOCCCCCCCCCCCCOc1ccc(-c2c3nc(c(-c4cc(OCCCCCCCCCC)c(OCCCCCCCCCC)c(OCCCCCCCCCC)c4)c4ccc([n-]4)c(-c4cc(OCCCCCCCCCC)c(OCCCCCCCCCC)c(OCCCCCCCCCC)c4)c4nc(c(-c5cc(OCCCCCCCCCC)c(OCCCCCCCCCC)c(OCCCCCCCCCC)c5)c5ccc2[n-]5)C=C4)C=C3)cc1.[Zn+2]` [Example 73, 5-[4-(12-but-3-Enyloxy-dodecyloxy)-phenyl]-10,15,20-tris-(3,4,5-tridecyloxy-phenyl)-porphyrinato Zinc] the same measures were 0.04 and 0.71 ± 0.07.
Consider `C=CCCOCCCCCCCCCCCCOc1ccc(-c2c3nc(c(-c4cc(OCCCCCCCCCCCCCCCC)c(OCCCCCCCCCCCCCCCC)c(OCCCCCCCCCCCCCCCC)c4)c4ccc([n-]4)c(-c4cc(OCCCCCCCCCCCCCCCC)c(OCCCCCCCCCCCCCCCC)c(OCCCCCCCCCCCCCCCC)c4)c4nc(c(-c5cc(OCCCCCCCCCCCCCCCC)c(OCCCCCCCCCCCCCCCC)c(OCCCCCCCCCCCCCCCC)c5)c5ccc2[n-]5)C=C4)C=C3)cc1.[Zn+2]` [Example 74, 5-[4-(12-but-3-Enyloxy-dodecyloxy)-phenyl]-10,15,20-tris-(3,4,5-trihexadecyloxy-phenyl)-porphyrinato Zinc], for which the “Quantum yield of fluorescence, relative to TPP = 0.11” value in data set [1] was found to be 0.04. In addition, the “ΦΔ (singlet oxygen quantum yield)” value in data set [2] is on record as 0.71 ± 0.07.
For `C=CCCOCCCCCCCCCCCCCCCCOc1ccc(C2=c3ccc4[n]3[Zn][n]3c(ccc3C(c3cc(OCCCCCCCCCC)c(OCCCCCCCCCC)c(OCCCCCCCCCC)c3)=C3C=CC(=N3)C=4c3cc(OCCCCCCCCCC)c(OCCCCCCCCCC)c(OCCCCCCCCCC)c3)C(c3cc(OCCCCCCCCCC)c(OCCCCCCCCCC)c(OCCCCCCCCCC)c3)=C3C=CC2=N3)cc1` [Example 75, 5-[4-(16-but-3-Enyloxy-hexadecyloxy)-phenyl]-10,15,20-tris-(3,4,5-tridecyloxy-phenyl)-porphyrinato Zinc] the same measures were 0.04 and 0.71 ± 0.07.
The matching figures for `C=CCCOCCCCCCCCCCCCCCCCOc1ccc(-c2c3nc(c(-c4cc(OCCCCCCCCCCCCCCCC)c(OCCCCCCCCCCCCCCCC)c(OCCCCCCCCCCCCCCCC)c4)c4ccc([n-]4)c(-c4cc(OCCCCCCCCCCCCCCCC)c(OCCCCCCCCCCCCCCCC)c(OCCCCCCCCCCCCCCCC)c4)c4nc(c(-c5cc(OCCCCCCCCCCCCCCCC)c(OCCCCCCCCCCCCCCCC)c(OCCCCCCCCCCCCCCCC)c5)c5ccc2[n-]5)C=C4)C=C3)cc1.[Zn+2]` [Example 76, 5-[4-(16-but-3-Enyloxy-hexadecyloxy)-phenyl]-10,15,20-tris-(3,4,5-trihexadecyloxy-phenyl)-porphyrinato Zinc]: 0.03 and 0.66 ± 0.07.
